Columns and labels:
[1] = system: Caco-2 cells; assay: ATP assay (CellTiter-Glo) cytotoxicity; format: cell-based
Procedure: (§1) Caco-2 cells were purchased from American Type Culture Collection (ATCC, USA) and maintained in Dulbecco's Modified Eagles Medium (DMEM) supplemented with 15% filtered sterile foetal bovine serum. Cells were incubated at 37° C. and 5% CO2 and were routinely sub-cultured every 4 days when 90% confluent. Cell count and viability was determined using a Countess automated cell counter (Invitrogen).
(§2) Caco-2 cells were seeded at a density of 1.0×10^4 cells/100 μl in DMEM supplemented with 15% FBS into each well of a 96 well plate (Nunclon, Denmark) and incubated at 37° C. and 5% CO2. Cells from 4 separate flasks of biological replicates of each cell type were used (N1-4) to improve statistical power. Media was then aspirated from column 1 and replaced with media containing each polydendron or aqueous Nile Red solution at an equivalent 1 μM Nile Red concentration then diluted 1:1 in media across the plate up to column 11. Column 12 served as a negative control and consisted of media and untreated cells. Following polydendron addition, the plates were incubated for 24 hours or 120 hours at 37° C., 5% CO2 prior to assessment of cytotoxicity.
Following incubation of treated plates for 24 h or 120 h, cells were equilibrated to room temperature for approximately 30 minutes. All but 20 μl of media was removed from each well and 20 μl CellTiter-Glo® (Promega, UK) reagent was added. All reagents were made fresh and in accordance with the manufacturer's instructions. Plates were put on an orbital shaker for 10 minutes to mix contents and allow for stabilisation of luminescence signal. Luminescence was then measured using a Tecan Genios plate reader (Tecan Magellan, Austria).

[2] = system: Caco-2 cell monolayers; assay: Transcellular permeability of Nile Red across Caco-2 monolayers; format: in vitro ADME; settings: 1 hour incubation
Procedure: Transwells were seeded with 3.5×10^4 cells per well and propagated to a monolayer over a 21 day period, during which media in the apical and basolateral wells was changed every other day. Trans-epithelial electrical resistance (TEER) values were monitored until they were >1300Ω. 1 μM of Nile Red polydendron or 1 μM aqueous Nile Red was added to the apical chamber of 4 wells and the basolateral chamber of 4 wells to quantify transport in both Apical to Basolateral (A>B) and Basolateral to Apical (B>A) direction and sampled on an hourly basis over a 4 h time period. Apparent permeability coefficient was then determined by the amount of compound transported over time using the equation: […]
where (dQ/dt) is the amount per time (nmol·sec^−1), A is the surface area of the filter and C0 is the starting concentration of the donor chamber (1 μM).
100 μl of each collected sample was mixed with 900 μl acetone, vortexed, sonicated for 6 minutes and centrifuged at 13300 rpm for 3 minutes. The supernatant was completely dried in a vacuum centrifuge at 30° C. until the dry solid sample was left. This was reconstituted in 150 μl acetonitrile, transferred to a 96-well black walled, flat bottomed plate and measured for fluorescence intensity excitation wavelength 480 nm, emission wavelength 560 nm using a Tecan Genios plate reader (Tecan Magellan, Austria).

[3] = system: Caco-2 cells; assay: MTT assay cytotoxicity; format: cell-based
Procedure: as §1, §2
Following incubation of treated plates for 24 h or 120 h, 20 μl of 5 mg ml^−1 MTT reagent was added to each well and incubated for 2 hours. Subsequently, 100 μL MTT lysis buffer (50% N—N-Dimethylformamide in water containing 20% SDS, 2.5% glacial acetic acid and 2.5% hydrochloric acid, pH 4.7) was added to each well to lyse overnight at 37° C., 5% CO2. Following incubation the absorbance of each well was read using a Tecan Genosis plate reader at 560 nm (Tecan Magellan, Austria).

For `CCN(CC)c1ccc2nc3c4ccccc4c(=O)cc-3oc2c1` [aqueous Nile Red, Nile red], the “effect on ATP presence in Caco-2 cells” value ([1]; 24 hour incubation, compared to untreated cells) was “ATP presence was not affected”, the “effect on viability of Caco-2 cells (ATP assay)” value ([1]; 120 hour incubation, compared to untreated cells) was “viability was not affected” and the “EC50, ATP assay” value ([1]; Caco-2 cells, 120 hour incubation, FIG. 9) was “No EC50”. For the same compound, the “A > B/B > A ratio” value [2] was 3.7140, the “effect on metabolic turnover of Caco-2 cells (MTT)” value ([3]; 24 hour incubation, compared to untreated cells, range of concentrations investigated) was “did not affect metabolic turnover” and the “effect on viability of Caco-2 cells (MTT)” value ([3]; 120 hour incubation, range of concentrations investigated) was “did not affect the viability”. For the same compound, the “EC50, MTT assay” value ([3]; Caco-2 cells, 120 hour incubation, FIG. 7) was “No EC50”.
